One test has as its system HeLa cells. Put plainly: Colony formation assay, HeLa cells. Format: cell-based, human. Conditions: for IC50: HeLa cells, single dose 0-100 μM, 8-10 days, at least 3 experiments. As to the method: HeLa, A549, or SUM-159 cells were plated at a low density of ˜200-400 cells per well in the absence or presence of putative ERK docking domain inhibitors. Cell colonies were stained with crystal violet and counted after 6-10 days.
(§1) Trypsinized cells were plated on 12 or 24 well plates at low densities (200-400 cells per well) in the absence (DMSO only) or presence of test compounds. In additional experiments, cells were first allowed to adhere to the culture dishes for 16 hours prior to treatment with test compounds. The treated cells received a single dose of the test compounds at the beginning of the experiments. The control and treated cells were grown for 8-14 days to allow the formation of colonies. Cells then were fixed for 10 minutes in 4% paraformaldehyde and stained with 0.2% crystal violet (in 20% methanol) for 1-2 minutes. Following several washes with distilled water, the colonies (containing at least 40 cells) were counted. Each individual experiment was repeated on at least 3 separate occasions.
HeLa cells were plated at low density and incubated with a single dose (0-100 μM) of the test compounds being tested. After 8-10 days, the resulting cell colonies were stained, photographed, and counted to estimate the IC50. The data is derived from at least 3 independent experiments.

The target in the next test is T1, ERK2 (Mus musculus, UniProt P63085).
T1 construct: (His)x6; made in house; host or cells: bacteria
T1 sequence (P63085 whole entry): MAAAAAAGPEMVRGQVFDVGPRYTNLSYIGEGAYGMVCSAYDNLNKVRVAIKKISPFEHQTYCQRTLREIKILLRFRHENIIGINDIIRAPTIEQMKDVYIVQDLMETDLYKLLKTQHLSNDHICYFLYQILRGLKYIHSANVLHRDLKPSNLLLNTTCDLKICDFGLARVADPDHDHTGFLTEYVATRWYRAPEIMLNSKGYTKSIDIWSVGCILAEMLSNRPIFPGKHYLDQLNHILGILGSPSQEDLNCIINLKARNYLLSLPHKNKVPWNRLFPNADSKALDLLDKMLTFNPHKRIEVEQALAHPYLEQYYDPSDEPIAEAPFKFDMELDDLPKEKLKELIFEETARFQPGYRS
Put plainly: Fluorescence titration (quenching of intrinsic ERK2 fluorescence). The test is classed as binding. Conditions: fluorescence titration. As to the method:
Experiments measure the changes in the intrinsic ERK2 fluorescence due to the presence of aromatic amino acids, with the indole group of tryptophan being the major fluorophore with absorption and emission maxima around 280 and 340 nanometers (nm), respectively. Fluorescence spectra were recorded with a Luminescence Spectrometer LS50 (Perkin Elmer, Boston, Mass.). For all experiments, ERK2 protein was diluted into 20 mM Tris-HCl, pH 7.5. Titrations were performed by increasing the test compound concentration while maintaining the ERK2 protein concentration at 3 μM.
The excitation wavelength was 295 nm and fluorescence was monitored from 300 to 500 nm. All reported fluorescence intensities are relative values and are not corrected for wavelength variations in detector response. Dissociation constants, KD, were determined using reciprocal plots, 1/ν vs 1/[I], where ν represents the percent occupied sites calculated assuming fluorescence quenching to be directly proportion to the percentage of occupied binding sites, [I] represents the concentration of the inhibitor compound and the slope of the curve equals the KD (48-49).
ERK2 contains three tryptophans, which have intrinsic fluorescence. Fluorescence quenching of ERK2 by the test compounds is indicative of binding interactions and potential protein conformational changes.

Test [1] relates to SUM-159 estrogen-receptor negative breast cancer cell line. Put plainly: Cell proliferation, SUM-159 cells. Format: cell-based, human. As to the method:
(§2) HeLa, A549, or SUM-159 cells were plated at a low density of ˜200-400 cells per well in the absence or presence of putative ERK docking domain inhibitors. Cell colonies were stained with crystal violet and counted after 6-10 days. In FIG. 7A cells were grown on 10 cm plates in the absence (−) or presence of 100 mM of compound 67, 36, 68, 81, or 76. Colony formation dose response in the presence of the indicated concentrations of compound 76 or 81 for Hela cells (100 mM) (FIG. 7B), A549 cells (50 mM) (FIG. 7C), or SUM-159 cells (50 mM) (FIG. 7D).
as §1

Test [2] relates to HeLa, A549, or SUM-159 cells. The test can be described thus: Colony formation assay, screen of test compounds (FIG. 7A). More on the design: dose or concentration left out as unconfirmed. Conditions: FIG. 7A screen as printed. The test is classed as cell-based, human. On the procedure: HeLa, A549, or SUM-159 cells were plated at a low density of ˜200-400 cells per well in the absence or presence of putative ERK docking domain inhibitors. Cell colonies were stained with crystal violet and counted after 6-10 days. In FIG. 7A cells were grown on 10 cm plates in the absence (−) or presence of 100 mM of compound 67, 36, 68, 81, or 76. Colony formation dose response in the presence of the indicated concentrations of compound 76 or 81 for Hela cells […] (FIG. 7B), A549 cells (50 mM) (FIG. 7C), or SUM-159 cells (50 mM) (FIG. 7D).
as §1
The effects of the active compounds on cell proliferation and survival were tested using a colony formation assay.

Test [3] concerns HT1080 fibrosarcoma cells. The test can be described thus: Cell proliferation, HT1080 cells. Format: cell-based, human. Conditions: data not shown. On the procedure: as §1
For test [4], the system named is A549 lung carcinoma cells. Put plainly: Colony formation assay, A549 cells. Format: cell-based, human. Conditions: colony formation dose response (FIG. 7C). On the procedure:
as §2, §1

Test [5] relates to ERK-mediated phosphorylation of Elk-1 on S383. The test can be described thus: ERK-mediated Elk-1 phosphorylation (Ser383), immunoblot in EGF-stimulated HeLa cells. Format: cell-based, human. On the procedure: (§3) Prior to harvesting, cells were pre-incubated with the test compounds for 15-20 minutes and then stimulated with EGF or anisomycin to activate the ERK or p38 MAP kinase pathways, respectively. […] The lysates then were diluted with an equal volume of 2X SDS-sample buffer and the proteins were separated on SDS-PAGE for immunoblot analysis. Immunoblot analysis was done as previously described (41-43).
Cells were treated with EGF to activate the ERK pathway and phosphorylation of Elk-1 on the ERK site at S383 was detected by immunoblot analysis (FIG. 5C). […] The effects of the test compounds were also tested with Rsk-1, another ERK substrate involved in regulating cell proliferation.
(In general: In western blotting, separated proteins are transferred to a membrane and probed.)

In test [6] the test system is ERK-mediated phosphorylation of Rsk-1 on Thr573. Put plainly: ERK-mediated Rsk-1 phosphorylation (Thr573), immunoblot and densitometry in EGF-stimulated HeLa cells. The test is classed as cell-based, human. Conditions: immunoblot. As to the method: Prior to harvesting, cells were pre-incubated with the test compounds for 15-20 minutes and then stimulated with EGF or anisomycin to activate the ERK or p38 MAP kinase pathways, respectively. Control and treated cells were washed twice with cold phosphate buffered saline (PBS, pH 7.2; Invitrogen) and proteins were collected following cell lysis with 300 μl of cold tissue lysis buffer (20 mM Tris, pH 7.4, 137 mM NaCl, 2 mM EDTA, 1% Triton X-100, 0.1% SDS, 25 mM β-glycerophosphate, 2 mM sodium pyrophosphate, 10% glycerol, 1 mM sodium orthovanadate, 1 mM phenylmethylsulfonyl fluoride (PMSF), 1 mM benzamidine), allowed to incubate on ice for about 10 minutes and then centrifuged at 20,000 (X g) to clarify the lysates of insoluble material. The lysates then were diluted with an equal volume of 2X SDS-sample buffer and the proteins were separated on SDS-PAGE for immunoblot analysis. Immunoblot analysis was done as previously described (41-43).
All compounds were subjected to assays of ERK specific phosphorylation of Rsk-1 and/or Elk-1 as examined by immunoblot analysis using phosphorylation specific antibodies. In FIG. 5A HeLa cells were cultured in 24 well plates and pretreated for 20-30 minutes with […] of the selected test compounds. The cells were stimulated with epidermal growth factor (EGF, 50 ng/ml) for 5 minutes to activate the ERK pathway. Cell lysates were collected and immunoblotted for ERK-mediated phosphorylation of Rsk-1 on Thr573. As shown, EGF treatment alone caused a robust increase in Thr573 phosphorylation on Rsk-1 in the absence of test compounds. The presence of test compounds had inhibitory effects on ERK-mediated Rsk-1 phosphorylation.
Compounds 86-98 were first tested for inhibition of ERK mediated phosphorylation of the transcription factor Elk-1, which is an important regulator of cell proliferation. Cells were treated with EGF to activate the ERK pathway and phosphorylation of Elk-1 on the ERK site at S383 was detected by immunoblot analysis (FIG. 5C). […] The effects of the test compounds were also tested with Rsk-1, another ERK substrate involved in regulating cell proliferation.

Test [7] has as its system ERK specific phosphorylation of Rsk-1 and/or Elk-1. Put plainly: ERK substrate phosphorylation assays (Rsk-1 and/or Elk-1). The test is classed as cell-based, human. As to the method:
as §3

These results are taken from patent US20070066616A1, “Inhibitors for extracellular signal-regulated kinase docking domains and uses therefor” (priority 2005, published 2007).

Each structure is given as a SMILES string. Entries after “also recorded” stand apart in the source; their conditions may differ.

As a reminder, the IC50 is the concentration that inhibits the measured activity by half.

In the test on HeLa cells, `COc1ccc(C(=O)Nc2ccc(OCC(=O)O)cc2)cc1` [Compound 96] yielded an IC50 of over 100 µM.

For `C#CCOC(=O)CCCC(=O)Nc1ccc([N+](=O)[O-])cc1Cl` [Compound 87], in the test with HeLa cells, the IC50 is over 100 µM.

`CCOC(=O)c1ccc(C=NO)[n+]([O-])c1` [Compound 88] yielded an IC50 in the test with HeLa cells of over 100 µM.

As to `O=C(CN1CCSCC1)NN=Cc1ccc(Br)s1` [Compound 97], in the test on HeLa cells, the IC50 is over 100 µM.

Consider `O=C(CCN1CCN(C/C=C/c2ccccc2)CC1)Nc1ccc(Cl)cc1` [Compound 81], for which the “ERK2 fluorescence quenching / binding (in words)” value at ERK2 is given as “quenching only occurs to a small extent at the higher concentrations”. The “inhibition of cell proliferation in SUM-159 (in words)” value in [1] is “inhibition of cell proliferation”. Further, the “effect on colony formation / cell proliferation (in words)” value in [2] was “completely inhibited”. Also, the “inhibition of cell proliferation in HT1080 (in words)” value in test [3] is “inhibition of cell proliferation”. The compound further returned an IC50 in test [4] of about 15 µM.

Turning to `Cc1ccc(-c2nc(-c3cccc([N+](=O)[O-])c3)no2)c(Cl)c1` [Compound 93], the “ERK2 fluorescence quenching / binding (in words)” value on ERK2 is “some quenching”. For the same compound, in the test on HeLa cells, the IC50 fell in the range of 5 to 10 µM. Moreover, the “inhibition of colony formation / cancer cell proliferation (in words)” value with HeLa cells (compounds 86-98, colony formation assay (FIG. 7E)) was “most effective inhibitors”. Moreover, in [5], the “effect on ERK-mediated Elk-1 phosphorylation (in words)” value is given as “most effective”.

Turning to `COc1cc(C=C2NC(=O)NC2=O)ccc1OCc1ccc(Br)cc1` [Compound 95], the “effect on ERK-mediated Rsk-1 phosphorylation (in words)” value in test [6] is listed as “most effective”. Also, the IC50 in the test on HeLa cells lay within 10 to 25 µM. The “effect on ERK-mediated Elk-1 phosphorylation (in words)” value in test [5] is on record as “most effective”.

With `NC(=N[N+](=O)[O-])N/N=C/c1ccc(-c2cccc([N+](=O)[O-])c2)o1` [Compound 89], the “effect on ERK-mediated Rsk-1 phosphorylation (in words)” value in [6] was “most effective”. Moreover, in [5], the “effect on ERK-mediated Elk-1 phosphorylation (in words)” value is “most effective”.

Take `CN(C)CCNC(=O)c1ccc(-c2ccccc2)cc1` [Compound 68]: the “effect on colony formation / cell proliferation (in words)” value in [2] is on record as “little effect”. Further, the “effect on ERK-mediated Rsk-1 phosphorylation (in words)” value in test [6] was “appeared to enhance; also recorded: enhanced”.

In the test with HeLa cells, `NC(=O)COc1ccc(C=C2C(=O)NC(=S)NC2=O)cc1` [Compound 98] showed an IC50 of over 100 µM.

Take `N=C(N)Nc1nc(C2COc3ccccc3O2)cs1` (stereo not drawn) [Compound 36]: the “effect on colony formation / cell proliferation (in words)” value in test [2] is listed as “subtle inhibition; also recorded: little effect”. Further, the “effect on ERK-mediated Rsk-1 phosphorylation (in words)” value in test [6] is reported as “little effect”. In addition, the “activity in ERK substrate phosphorylation assays (in words)” value in test [7] is given as “little effect”.

On to `CC(Oc1ccc(C=C2NC(=S)NC2=O)cc1)C(=O)O` (stereo not drawn) [Compound 91], for which the “effect on ERK-mediated Rsk-1 phosphorylation (in words)” value in [6] is “most effective”. The compound also registered an IC50 in the test with HeLa cells of over 100 µM.

Compound `CCOC(=O)c1ccc(NC(=S)NCCN2CCOCC2)cc1` [Compound 90] displayed an IC50 in the test with HeLa cells of over 100 µM.

With `COc1ccc(CN2CCNCC2)cc1` [Compound 67], at ERK2, the “ERK2 fluorescence quenching / binding (in words)” value is “did not show quenching”. For the same compound, the “effect on colony formation / cell proliferation (in words)” value in test [2] is on record as “little effect”. For the same compound, the “effect on ERK-mediated Rsk-1 phosphorylation (in words)” value in [6] is “significantly reduced”.
